# From patent US6955891B2 (priority 2002, dated 2005)
# Experiments:
# [1] = target: Lethal factor (Bacillus anthracis, UniProt P15917); conditions: cited from earlier work
# [2] = target: Bacillus anthracis lethal factor (Bacillus anthracis, UniProt P15917)
# Chain of Bacillus anthracis lethal factor (P15917 34-809 limits assumed): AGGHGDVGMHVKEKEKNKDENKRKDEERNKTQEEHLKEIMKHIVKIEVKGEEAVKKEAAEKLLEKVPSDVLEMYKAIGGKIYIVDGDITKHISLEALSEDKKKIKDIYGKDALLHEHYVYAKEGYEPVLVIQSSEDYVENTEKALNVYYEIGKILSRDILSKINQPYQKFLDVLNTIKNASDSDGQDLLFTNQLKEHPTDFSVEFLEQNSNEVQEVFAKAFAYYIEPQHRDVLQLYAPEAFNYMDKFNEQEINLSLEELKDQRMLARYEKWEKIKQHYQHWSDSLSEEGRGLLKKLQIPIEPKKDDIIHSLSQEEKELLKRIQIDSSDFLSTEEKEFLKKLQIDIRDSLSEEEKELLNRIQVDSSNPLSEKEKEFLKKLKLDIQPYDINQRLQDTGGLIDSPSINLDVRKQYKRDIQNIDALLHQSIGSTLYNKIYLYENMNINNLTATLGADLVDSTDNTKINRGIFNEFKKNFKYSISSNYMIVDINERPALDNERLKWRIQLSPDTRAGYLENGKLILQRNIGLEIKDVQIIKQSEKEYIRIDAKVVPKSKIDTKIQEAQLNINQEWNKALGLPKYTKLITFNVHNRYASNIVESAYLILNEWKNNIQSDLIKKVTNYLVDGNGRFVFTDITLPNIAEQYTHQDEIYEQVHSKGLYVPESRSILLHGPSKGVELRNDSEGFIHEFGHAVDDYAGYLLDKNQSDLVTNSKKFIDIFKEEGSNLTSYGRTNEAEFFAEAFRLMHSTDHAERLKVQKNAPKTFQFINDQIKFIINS
# Chain of Lethal factor (P15917 34-809 limits assumed): as above
Compound,effect on in vitro cleavage of synthetic peptides by lethal factor [1],signal/background (S/B) at 100% cleavage [2]
"c1cnc2c(c1)ccc1cccnc12 [1,10-phenanthroline]",inhibited,
(Cou)NleKKKKVLP IQLNAATDK(Q-35)GG-NH2 [(Cou)Consensus(K(QSY-35)GG)-NH2],,largest S/B
